Data from ChEMBL document CHEMBL2203135, “Novel progesterone receptor modulators: 4-aryl-phenylsulfonamides” (Bioorg Med Chem Lett, 2012).
Activity calls are given as the source filed them. No cut-off for these calls is given here.

Assays:
[1] = Clearance in rat at 2 mg/kg, iv; type: ADME, organism-based; parameters: dose 2 mg/kg, route intravenous; conditions: in vivo
Salmonella typhimurium [2] = experiment: Mutagenicity in Salmonella typhimurium in presence of liver S9 fraction by non-GLP Ames test; type: toxicity, organism-based; conditions: salmonella enterica subsp. enterica serovar typhimurium
[3] = Oral bioavailability in cynomolgus monkey at 2 mg/kg; type: ADME, organism-based, Macaca fascicularis; conditions: in vivo
Salmonella typhimurium [4] = experiment: Mutagenicity in Salmonella typhimurium in absence of liver S9 fraction by non-GLP Ames test; type: toxicity, organism-based; conditions: salmonella enterica subsp. enterica serovar typhimurium
[5] = Cmax in cynomolgus monkey at 2 mg/kg, po; type: ADME, organism-based, Macaca fascicularis; parameters: dose 2 mg/kg, route oral; conditions: in vivo
[6] = Volume of distribution at steady state in rat at 2 mg/kg, iv; type: ADME, organism-based; parameters: dose 2 mg/kg, route intravenous; conditions: in vivo, read-out: Vdss
[7] = AUC (0 to infinity) in rat at 2 mg/kg, po; type: ADME, organism-based; parameters: time infinity, dose 2 mg/kg, route oral; conditions: plasma
[8] = AUC (0 to last) in in ovariectomized rhesus monkey at 5 mg/kg/day, po; type: ADME, organism-based, Macaca mulatta; parameters: dose 5 mg/kg/day, time 0 - last, route oral; conditions: female, plasma
[9] = Half life in rat at 2 mg/kg, iv; type: ADME, organism-based; parameters: dose 2 mg/kg, route intravenous; conditions: in vivo
[10] = Clearance in cynomolgus monkey at 2 mg/kg, iv; type: ADME, organism-based, Macaca fascicularis; parameters: dose 2 mg/kg, route intravenous; conditions: in vivo
Rhesus monkey = experiment: Induction of early menstruation in ovariectomized rhesus monkey menses induction model at 5 mg/kg/day, po; type: functional, organism-based; conditions: Macaca mulatta

clearance [1]: 0.156 L/h/kg
bioavailability [3]: 69%
Cmax [5]: 5.1 µg/mL
Vd [6]: 0.5 L/kg
AUC(0-inf) [7]: 15.2 µg·h/mL
AUC(0-t) [8]: 28.5 µg·h/mL
half-life [9]: 2 h
clearance [10]: 0.12 L/h/kg
Compound: CCS(=O)(=O)Nc1cc(F)c(-c2ccc(C#N)n2C)c(F)c1
Activity (Salmonella typhimurium [2]): Non-toxic
Activity (Salmonella typhimurium [4]): Non-toxic
Activity (Rhesus monkey): Active
